The source of these data is patent US20040101477A1, “Individualization of therapy with anesthetics” (Xanthus Life Sciences, Inc., priority 2002, published 2004).

Series [1] deals with AAMU-Ab. The series is described as follows: Competitive antigen ELISA, cross-reactivity of AAMU-Ab. The format is binding, rabbit. To be noted: 0 = absence of inhibition or inhibition no higher than 40% at 5 × 10^−3 M. As for the experimental part:
(§1) Buffers and water without additives are filtered through millipore filters and kept for 1 week. BSA, antibodies, Tween™ 20 and horse radish peroxidase conjugates are added to these buffers and water just prior to use. Urine samples are usually collected 4 hours after drinking a cup of coffee (instant or brewed with approximately 100 mg of caffeine per cup) and stored at 80° C. The urine samples are diluted 10 times with sodium phosphate buffer (620 mosm, pH 7.50) and are subsequently diluted with water to give concentrations of AAMU and 1× no higher than 3×10^−6 M in the ELISA. All the pipettings are done with an eight-channel pipette, except those of the antibody and sample solutions. Starting with the last well, 100 μL of a carbonate buffer (100 mM, pH 9.6) containing 2.5 μg mL-^1 antibodies are added to each well. After 90 min. at room temperature, the wells are washed three times with […] of TPB: isotonic sodium phosphate buffer (310 mosm, pH 7.50) containing 0.05% Tween™ 20.
(§2) After the initial wash, unoccupied sites are blocked by incubation for 90 min. at room temperature with 100 μL TBP containing 3% BSA. The wells are washed four times with 100 μL TPB. […] The microplate is gently shaken with an orbital shaker at room temperature for 3-4 hours. The wells are washed three times with 100 μL TPB containing 1% BSA and three times with water containing 0.05% Tween™ 20. To the washed plate is added 150 μL of a substrate buffer composed of citric acid (25 mM) and sodium phosphate dibasic buffer (50 mM, pH 5.0) containing 0.06% hydrogen peroxide and 0.04% o-phenylenediamine hydrochloride.
(§3) Buffers and water without additives were filtered through millipore filters and kept for 1 week. BSA, antibodies, Tween™ 20 and horse radish peroxidase conjugates were added to these buffers and water just prior to use. Urine samples were usually collected 4 hours after drinking a cup of coffee (instant or brewed with approximately 100 mg of caffeine per cup) and stored at −80° C. They were diluted 10 times with sodium phosphate buffer (620 mosm, pH 7.50) and were subsequently diluted with water to give concentrations of AAMU and 1× no higher than 3×10^−6 M in the ELISA. All the pipettings were done with an eight-channel pipette, except those of the antibody and sample solutions. Starting with the last well, 100 μL of a carbonate buffer (100 mM, pH 9.6) containing 2.5 μg mL-^1 antibodies was pipetted. After 90 min. at room temperature, the wells were washed three times with 100 μL of TPB: isotonic sodium phosphate buffer (310 mosm, pH 7.50) containing 0.05% Tween™ 20.
(§4) After the initial wash, unoccupied sites were blocked by incubation for 90 min. at room temperature with 100 μL TBP containing 3% BSA. The wells were washed four times with 100 μL TPB. […] The microplate was gently shaken with an orbital shaker at room temperature for 3-4 hours. The wells were washed three times with 100 μL with TPB containing 1% BSA and three times with water containing 0.05% Tween™ 20. To the washed plate was added 150 μL of a substrate buffer composed of citric acid (25 mM) and sodium phosphate dibasic buffer (50 mM, pH 5.0) containing 0.06% hydrogen peroxide and 0.04% o-phenylenediamine hydrochloride. After 20 min. at room temperature with shaking, the reaction was stopped with 50 μL of 2.5 N HCl.
(§5) The cross reactivities of AAMU-Ab and 1×-Ab were tested using a wide variety of caffeine metabolites and structural analogs (Table 2 below). AAMU-Ab appeared highly specific for binding AAMU, while 1×-Ab appeared relatively specific for binding 1×.
Background: In an ELISA, binding on a coated surface is turned into a signal by an enzyme label.

The subject of series [2] is 1X-Ab. Description: Competitive antigen ELISA, cross-reactivity of 1X-Ab. The format is binding, rabbit. As to conditions: 0 = absence of inhibition or inhibition no higher than 40% at 5 × 10^−3 M. As for the experimental part:
as §1, §2, §3, §4, §5

The conditions of series [3]: cited from earlier work; for metabolized fraction of the absorbed anesthetic: in vivo.
The test system of series [4] is cytochrome P-450. To be noted: microsomal preparations; cited from earlier work.
The conditions of series [5]: humans; cited from earlier work.
The conditions of series [6]: subanesthetic and/or anesthetic concentrations; cited from earlier work.
For series [7] the following is noted: mouse, inhalation, 0.05%, 18 months; cited from earlier work.
For series [8], the system named is spermatogonia cells and bone marrow cells. As to conditions: rat, one-year exposure, 1 and 10 ppm, with nitrous oxide; cited from earlier work.
In series [9] the test system is Chinese hamster ovary cells. To be noted: cited from earlier work.
Series [10] concerns Chinese hamster lung fibroblast. To be noted: cited from earlier work.
Series [11] deals with human leukocyte culture. As to conditions: cited from earlier work.
The conditions of series [12]: 37° C.; cited from earlier work.
The conditions of series [13]: rat, 10 ppm, with nitrous oxide; cited from earlier work.
For series [14] the following is noted: cited from earlier work.

Read-outs that look alike come from different tables or passages of the source. Marks after values point to notes of the source that are not given here.

Consider `CC(=O)Nc1c(N)n(C)c(=O)n(C)c1=O` [5-Acetamino-6-amino-1,3-dimethyluracil], for which the “% Cross-Reaction AAMU-Ab” value in series [1] is recorded as 0%. The “% Cross-Reaction 1X-Ab” value in series [2] amounted to 0%.
`Nc1nc2nc[nH]c2c(=O)[nH]1` [Guanine]: in [1], the “% Cross-Reaction AAMU-Ab” value is 0%. The “% Cross-Reaction 1X-Ab” value in [2] is 0%.
Regarding `FC(F)OC(Cl)C(F)(F)F` (stereo not drawn) [isoflurane], the “metabolism, fraction of the absorbed anesthetic” value in [3] (estimated) is “approximately 0.2%”.
For `FC(F)OC(F)(F)C(F)Cl` (stereo not drawn) [Enflurane], the “metabolized fraction of the absorbed anesthetic” value in [3] is 2-8%. Moreover, the “concentration that destroys cytochrome P-450” value in series [4] is recorded as 13.3 mmol/L.
On to `CC(=O)Nc1c(N)[nH]c(=O)[nH]c1=O` [5-Acetamino-6-amino-uracil], for which the “% Cross-Reaction AAMU-Ab” value in series [1] amounted to 0.6%. In [2], the “% Cross-Reaction 1X-Ab” value came to 0%.
As for `Cn1c(=O)[nH]c(=O)c2[nH]cnc21` [3-Methyl Xanthine], the “% Cross-Reaction AAMU-Ab” value in [1] is given as 0%. Further, the “% Cross-Reaction 1X-Ab” value in [2] amounted to 0%.
For the compound `FC(F)(F)C(Cl)Br` (racemic) [Halothane, 2-bromo-2-chloro-1,1,1-trifluoro-ethane], the “minimum alveolar concentration (MAC)” value in series [5] was 0.64%. Also, the teratogenic effects entry in [6] was “teratogenic, embryotoxic, and fetotoxic”. Further, in [7], the carcinogenicity result was “no evidence of anesthetic-related carcinogenicity”. The “mutagenesis, chromosomal damage” value in series [8] is “chromosomal damage to spermatogonia cells and bone marrow cells”. For the same compound, the “mutagenesis, sister chromatid exchange” value in [9] is reported as “Negative”. In series [10], the “mutagenesis, Chinese hamster lung fibroblast assay” value is given as “Negative”. The “mutagenesis, human leukocyte culture assay” value in series [11] is recorded as “Negative”. For the same compound, in series [12], the blood/gas coefficient is recorded as 2.5 and the olive oil/water coefficient was 220. Also, the “metabolized fraction of the absorbed anesthetic” value in [3] is given as 25-45%. The “concentration that destroys cytochrome P-450” value in series [4] is reported as 18.8 mmol/L. The fertility entry in series [13] is “decreased fertility”.
For `Cn1c(=O)[nH]c2ncn(C)c2c1=O` [1,7-Dimethyl Xanthine (Paraxanthine), 1,7-Dimethyl Xanthine], in series [1], the “% Cross-Reaction AAMU-Ab” value is on record as 0%. Besides, in [2], the “% Cross-Reaction 1X-Ab” value is 0.5%.
With `Cn1cnc2[nH]c(=O)[nH]c(=O)c21` [7-Methyl Xanthine], in series [1], the “% Cross-Reaction AAMU-Ab” value is 0%. Besides, in [2], the “% Cross-Reaction 1X-Ab” value was 0%.
Consider `O=c1[nH]c(=O)c2[nH]cnc2[nH]1` [Xanthine], for which the “% Cross-Reaction AAMU-Ab” value in series [1] is on record as 0^a %. Moreover, in series [2], the “% Cross-Reaction 1X-Ab” value worked out at 0%.
As for `Nc1ccc(S(=O)(=O)c2ccc(N)cc2)cc1` [dapsone], the values for the adverse reactions in series [14] (fast acetylators) and in series [14] (slow acetylators) were 17% and 46%, respectively.
With `Cc1nc2[nH]c(=O)[nH]c(=O)c2[nH]1` [8-Methyl Xanthine], the “% Cross-Reaction AAMU-Ab” value in [1] is 0%. In addition, the “% Cross-Reaction 1X-Ab” value in series [2] is 0%.
In the case of `Cn1c(=O)c2c(ncn2C)n(C)c1=O` [1,3,7-Trimethyl Xanthine (Caffeine), 1,3,7-Trimethyl Xanthine], the “% Cross-Reaction AAMU-Ab” value in series [1] is 0%. Moreover, in [2], the “% Cross-Reaction 1X-Ab” value is 0%.
Take `O=c1cc[nH]c(=O)[nH]1` [Uracil]: the “% Cross-Reaction AAMU-Ab” value in [1] is given as 0%. Moreover, the “% Cross-Reaction 1X-Ab” value in series [2] is on record as 0%.
For the compound `CC(=O)Nc1c(N)n(C)c(=O)[nH]c1=O` [5-Acetamino-6-amino-1-methyluracil], the “% Cross-Reaction AAMU-Ab” value in [1] is given as 100%. Also, the “% Cross-Reaction 1X-Ab” value in [2] worked out at 0%.
`Cn1c(=O)[nH]c2[nH]c(=O)[nH]c2c1=O` [1-Methyluric acid]: the “% Cross-Reaction AAMU-Ab” value in [1] was determined as 0%. For the same compound, in series [2], the “% Cross-Reaction 1X-Ab” value was found to be 11%.
The matching figures for `O=c1[nH]cnc2nc[nH]c12` [Hypoxanthine]: 0% and 0%.
As for `COC(F)(F)C(Cl)Cl` [methoxyflurane], in [4], the “concentration that destroys cytochrome P-450” value is reported as 5.8 mmol/L.
`Cn1c(=O)[nH]c2nc[nH]c2c1=O` [1-Methyl Xanthine (1X), 1-Methyl Xanthine]: the “% Cross-Reaction AAMU-Ab” value in series [1] amounted to 0%. The “% Cross-Reaction 1X-Ab” value in series [2] is 100%.
Regarding `O=c1[nH]c(=O)c2[nH]c(=O)[nH]c2[nH]1` [Uric acid], the “% Cross-Reaction AAMU-Ab” value in series [1] turned out to be 0%. The “% Cross-Reaction 1X-Ab” value in [2] was determined as 0%.
As to `Cn1c(=O)[nH]c2[nH]c(=O)n(C)c2c1=O` [1,7-Dimethyluric acid], the “% Cross-Reaction AAMU-Ab” value in series [1] was determined as 0%. Moreover, the “% Cross-Reaction 1X-Ab” value in series [2] came out at 0%.
As for `Cn1cnc2c1c(=O)[nH]c(=O)n2C` [3,7-Dimethyl Xanthine (Theobromine), 3,7-Dimethyl Xanthine], the “% Cross-Reaction AAMU-Ab” value in [1] is listed as 0%. Also, the “% Cross-Reaction 1X-Ab” value in series [2] is on record as 0%.
Take `Cn1c(=O)c2[nH]cnc2n(C)c1=O` [1,3-Dimethyl Xanthine (Theophylline), 1,3-Dimethyl Xanthine]: in series [1], the “% Cross-Reaction AAMU-Ab” value worked out at 0%. The “% Cross-Reaction 1X-Ab” value in [2] is 0.2%.
